Experimental data taken from patent publication EP1090023B1 (GLAXO GROUP LIMITED, priority 1998, dated 1999).

Key:
Assay type in all cases: cell-based
adenosine 2a = adenosine 2a (Homo sapiens, UniProt P29274); test: Agonist activity against adenosine receptor subtypes, CHO cells with cAMP response element/SPAP reporter (basal cAMP); conditions: ratio to EC50 of NECA; transfected CHO cells; effect on basal cAMP via SPAP
Method: (§1) Compounds of the invention were tested for in vitro and in vivo biological activity in accordance with the following screens: • (1) Agonist activity against adenosine 2a, adenosine 1 and adenosine 3 receptor subtypes.
(§2) Agonist selectivity of compounds against other human adenosine receptors was determined using Chinese hamster ovary (CHO) cells transfected with the gene for the relevant human adenosine receptor following a method based on that of Castanon and Spevak, 1994 . The CHO cells were also transfected with cyclic AMP response elements promoting the gene for secreted placental alkaline phosphatase (SPAP) (Wood, 1995). The effect of test compounds was determined by their effects on basal levels of cAMP (A2a) or on forskolin-enhanced cAMP (A1 and A3) as reflected by changes in levels of SPAP. EC50 values for compounds were then determined as a ratio to that of the non-selective agonist N-ethyl carboxamide adenosine (NECA).

adenosine 1 = target: T1, adenosine 1 (Homo sapiens, UniProt P30542); test: Agonist activity against adenosine receptor subtypes, CHO cells with cAMP response element/SPAP reporter (forskolin-enhanced cAMP); conditions: ratio to EC50 of NECA; transfected CHO cells; effect on forskolin-enhanced cAMP via SPAP
T1 sequence (P30542 1-326): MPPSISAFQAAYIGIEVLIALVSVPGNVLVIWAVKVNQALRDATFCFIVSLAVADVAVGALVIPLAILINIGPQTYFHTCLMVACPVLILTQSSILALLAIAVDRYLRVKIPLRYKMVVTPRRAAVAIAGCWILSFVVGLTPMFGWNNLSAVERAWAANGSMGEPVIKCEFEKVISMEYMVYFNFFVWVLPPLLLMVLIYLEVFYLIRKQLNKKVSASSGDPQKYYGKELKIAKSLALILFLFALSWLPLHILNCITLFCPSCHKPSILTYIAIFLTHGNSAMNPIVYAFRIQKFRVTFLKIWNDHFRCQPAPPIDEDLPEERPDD
Method: as §1, §2

adenosine 3 = target: T2, adenosine 3 (Homo sapiens, UniProt P0DMS8); test: as above; conditions: ratio to EC50 of NECA; transfected CHO cells; effect on forskolin-enhanced cAMP via SPAP
T2 sequence (P0DMS8 1-318): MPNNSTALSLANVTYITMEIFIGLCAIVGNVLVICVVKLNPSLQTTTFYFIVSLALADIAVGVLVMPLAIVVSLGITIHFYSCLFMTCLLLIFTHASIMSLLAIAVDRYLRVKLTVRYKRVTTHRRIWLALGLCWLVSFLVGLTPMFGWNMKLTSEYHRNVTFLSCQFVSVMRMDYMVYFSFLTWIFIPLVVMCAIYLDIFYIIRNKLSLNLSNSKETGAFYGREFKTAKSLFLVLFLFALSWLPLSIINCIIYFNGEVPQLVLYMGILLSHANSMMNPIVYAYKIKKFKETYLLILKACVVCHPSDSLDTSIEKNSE
Method: as §1, §2

adenosine 2a, sequence (P29274 whole entry): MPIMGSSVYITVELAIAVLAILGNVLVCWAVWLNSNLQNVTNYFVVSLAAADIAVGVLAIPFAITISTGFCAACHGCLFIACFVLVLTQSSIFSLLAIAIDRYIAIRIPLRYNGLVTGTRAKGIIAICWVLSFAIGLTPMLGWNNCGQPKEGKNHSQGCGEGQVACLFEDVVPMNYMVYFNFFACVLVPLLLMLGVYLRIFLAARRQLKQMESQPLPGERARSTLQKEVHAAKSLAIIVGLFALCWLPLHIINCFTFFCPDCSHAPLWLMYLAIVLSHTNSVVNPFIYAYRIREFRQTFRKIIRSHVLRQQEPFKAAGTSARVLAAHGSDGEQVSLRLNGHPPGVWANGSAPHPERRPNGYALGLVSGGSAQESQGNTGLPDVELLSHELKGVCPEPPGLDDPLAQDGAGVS

| Structure (SMILES) | A2a (EC50 values as a ratio of that of NECA) (adenosine 2a) | A1 (EC50 values as a ratio of that of NECA) (adenosine 1) | A3 (EC50 values as a ratio of that of NECA) (adenosine 3) |
| --- | --- | --- | --- |
| CCc1nc([C@H]2O[C@@H](n3cnc4c(NCC(c5ccccc5)c5ccccc5)nc(NCCNC(=N)N)nc43)[C@H](O)[C@@H]2O)no1.O=CO.O=CO [Example 29, N-(2-{6-(2,2-Diphenyl-ethylamino)-9-[5R-(5-ethyl-[1,2,4]oxadiazol-3-yl)-3R,4S-dihydroxy-tetrahydro-furan-2R-yl]-9H-purin-2-ylamino}-ethyl)-guanidine diformate] | 30.7 | >2147 | >284 |
| CCn1cnc(C2OC(n3cnc4c(NCC(c5ccccc5)c5ccccc5)nc(NC5CCC(N)CC5)nc43)C(O)C2O)n1.O=CO.O=CO [Example 30, (2R,3R,4S,5R)-2-[2-(trans-4-Amino-cyclohexylamino)-6-(2,2-diphenyl-ethylamino)-purin-9-yl]-5-(1-ethyl-1H-[1,2,4]triazol-3-yl)-tetrahydro-furan-3,4-diol diformate] | 13.27 | 2948.1 | >206 |
| CCn1cnc([C@H]2O[C@@H](n3cnc4c(NCC(c5ccccc5)c5ccccc5)nc(NCCc5cn(C)cn5)nc43)[C@H](O)[C@@H]2O)n1.O=CO.O=CO [Example 31, (2R,3R,4S,5R)-2-{6-(2,2-Diphenyl-ethylamino)-2-[2-(1-methyl-1H-imidazol-4-yl)-ethylamino]-purin-9-yl}-5-(1-ethyl-1H-[1,2,4]triazol-3-yl)-tetrahydro-furan-3,4-diol diformate] | 8.79 | 1753.5 | >206 |
| CCn1cnc([C@H]2O[C@@H](n3cnc4c(NCC(c5ccccc5)c5ccccc5)nc(NCCN5CCCCC5)nc43)[C@H](O)[C@@H]2O)n1.O=CO.O=CO [Example 32, (2R,3R,4S,5R)-2-[6-(2,2-Diphenyl-ethylamino)-2-(2-piperidin-1-yl-ethylamino)-purin-9-yl]-5-(1-ethyl-1H-[1,2,4]triazol-3-yl)-tetrahydro-furan-3,4-diol diformate] | 11.85 | 1217.4 | >206 |
| CCn1cnc([C@H]2O[C@@H](n3cnc4c(NCC(c5ccccc5)c5ccccc5)nc(NCCc5ccccn5)nc43)[C@H](O)[C@@H]2O)n1.O=CO.O=CO [Example 33, (2R,3R,4S,5R)-2-[6-(2,2-Diphenyl-ethylamino)-2-(2-pyridin-2-yl-ethylamino)-purin-9-yl]-5-(1-ethyl-1H-[1,2,4]triazol-3-yl)-tetrahydro-furan-3,4-diol diformate] | 34.25 | 4999.7 | >206 |
| CCn1cnc(C2OC(n3cnc4c(NCC(c5ccccc5)c5ccccc5)nc(NC5CCNC5)nc43)C(O)C2O)n1.O=CO.O=CO [Example 34, (2R,3R,4S,5R)-2-[6-(2,2-Diphenyl-ethylamino)-2-(pyrrolidin-3R-ylamino)-purin-9-yl]-5-(1-ethyl-1H-[1,2,4]triazol-3-yl)-tetrahydro-furan-3,4-diol diformate] | 10.97 | 1980.8 | >231 |
| CCC(CC)Nc1nc(NCCc2cn(C)cn2)nc2c1ncn2[C@@H]1O[C@H](c2nnc(C3CC3)o2)[C@@H](O)[C@H]1O.O=CO.O=CO [Example 37] | 6.39 | 581.9 | >173 |
| CCC(CC)Nc1nc(NCCN2CCCCC2)nc2c1ncn2C1OC(c2nnc(C3CC3)o2)C(O)C1O.O=CO.O=CO (stereo not drawn) [Example 38] | 45.64 | 365.6 | >173 |
